Active and inactive are the calls of the source.
Assays:
[1] = Toxicity in (Tg(Dusp6:d2EGFP)pt6) transgenic Zebrafish assessed as induction of embryo death at 10 uM incubated for 24 hrs; parameters: species or system Danio rerio; conditions: in vivo, other: incubation
[2] = Toxicity in (Tg(Dusp6:d2EGFP)pt6) transgenic Zebrafish assessed as induction of embryo death at 40 uM incubated for 24 hrs; parameters: species or system Danio rerio; conditions: in vivo
[3] = molecular target: T1, Dual specificity protein phosphatase (Danio rerio) (UniProt Q7T2L8); experiment: Inhibition of Dusp6 in (Tg(Dusp6:d2EGFP)pt6) transgenic Zebrafish assessed as activation of FGF signaling at 20 uM treated at 24 hours post fertilization and measured after 6 hrs post dose by d2EGFP fluorescence based assay relative to BCI; parameters: scale not given: the % may be the effect or the level left
T1 sequence (whole entry): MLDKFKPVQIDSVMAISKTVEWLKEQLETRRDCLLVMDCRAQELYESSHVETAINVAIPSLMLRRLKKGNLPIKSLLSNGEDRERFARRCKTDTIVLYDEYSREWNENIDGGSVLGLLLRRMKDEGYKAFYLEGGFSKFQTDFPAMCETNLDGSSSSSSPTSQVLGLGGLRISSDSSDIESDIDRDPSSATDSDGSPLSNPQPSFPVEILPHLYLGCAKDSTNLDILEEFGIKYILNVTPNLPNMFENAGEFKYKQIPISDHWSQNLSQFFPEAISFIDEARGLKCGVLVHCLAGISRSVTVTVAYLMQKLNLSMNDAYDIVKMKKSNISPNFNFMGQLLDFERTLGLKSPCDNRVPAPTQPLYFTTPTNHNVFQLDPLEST

[4] = molecular target: T1, Dual specificity protein phosphatase (Danio rerio); experiment: Inhibition of Dusp6 in (Tg(Dusp6:d2EGFP)pt6) transgenic Zebrafish assessed as activation of FGF signaling at 20 uM by d2EGFP fluorescence based assay
[5] = molecular target: T2, Dual specificity protein phosphatase 6 (Homo sapiens) (UniProt Q16828); experiment: Inhibition of Myc-tagged human Dusp6 expressed in TPA-stimulated human HeLa cells assessed as suppression of Dusp6-induced reduction in ERK phosphorylation at 0.5 to 2 uM by immunostaining based assay; format: cell-based
T2 sequence (whole entry): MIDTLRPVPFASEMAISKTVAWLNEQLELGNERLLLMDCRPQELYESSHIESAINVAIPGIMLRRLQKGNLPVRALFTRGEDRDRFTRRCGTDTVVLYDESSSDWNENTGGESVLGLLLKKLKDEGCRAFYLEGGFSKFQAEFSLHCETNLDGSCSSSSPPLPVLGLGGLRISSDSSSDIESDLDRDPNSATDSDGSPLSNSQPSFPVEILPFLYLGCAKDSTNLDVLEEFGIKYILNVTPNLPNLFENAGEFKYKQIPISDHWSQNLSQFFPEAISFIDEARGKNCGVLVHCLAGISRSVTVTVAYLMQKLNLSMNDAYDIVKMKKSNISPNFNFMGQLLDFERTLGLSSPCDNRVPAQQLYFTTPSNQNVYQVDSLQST

[6] = molecular target: T3, Dual specificity protein phosphatase 1 (Homo sapiens) (UniProt P28562); experiment: Inhibition of Myc-tagged human Dusp1 expressed in TPA-stimulated human HeLa cells assessed as suppression of […] reduction in ERK phosphorylation at 0.5 to 2 uM by immunostaining based assay; format: cell-based
T3 sequence (whole entry): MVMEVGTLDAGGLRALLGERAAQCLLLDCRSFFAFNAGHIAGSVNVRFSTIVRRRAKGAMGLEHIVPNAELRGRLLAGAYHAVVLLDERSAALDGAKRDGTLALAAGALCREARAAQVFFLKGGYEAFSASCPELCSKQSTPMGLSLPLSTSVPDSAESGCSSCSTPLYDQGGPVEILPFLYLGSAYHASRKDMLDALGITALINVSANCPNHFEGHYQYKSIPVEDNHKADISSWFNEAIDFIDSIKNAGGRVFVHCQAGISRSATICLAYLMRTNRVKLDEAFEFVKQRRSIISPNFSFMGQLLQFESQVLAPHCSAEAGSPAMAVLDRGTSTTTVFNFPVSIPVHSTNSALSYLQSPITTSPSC

[7] = molecular target: T2, Dual specificity protein phosphatase 6 (Homo sapiens); experiment: Inhibition of recombinant His-tagged Dusp6 (unknown origin) assessed as suppression of […] dephosphorylation at 100 uM incubated for 60 mins by immunoblotting
[8] = Toxicity in (Tg(Dusp6:d2EGFP)pt6) transgenic Zebrafish assessed as induction of embryo death at 20 uM incubated for 24 hrs; parameters: species or system Danio rerio; conditions: in vivo, other: incubation
[9] = Toxicity in (Tg(Dusp6:d2EGFP)pt6) transgenic Zebrafish assessed as induction of embryo death at >10 uM incubated for 24 hrs; parameters: species or system Danio rerio; conditions: in vivo
[10] = Toxicity in (Tg(Dusp6:d2EGFP)pt6) transgenic Zebrafish assessed as induction of tail necrosis at >10 uM incubated for 24 hrs; parameters: species or system Danio rerio; conditions: in vivo
[11] = species on record: Danio rerio; experiment: (§1) Induction of cardiac tissue expansion in Zebrafish embryos assessed as induction of heart enlargement by measuring increase in VHMC expression exposed to compound at larval stage followed by compound washout in next day and further incubation until embryos reached 56 hpf by in situ hybridization assay; format: functional, organism-based
[12] = molecular target: T1, Dual specificity protein phosphatase (Danio rerio); experiment: Inhibition of Dusp6 in (Tg(Dusp6:d2EGFP)pt6) transgenic Zebrafish assessed as activation of FGF signaling by measuring increase in sef expression at 10 to 20 uM by semi-quantitative RT-PCR analysis
[13] = species on record: Danio rerio; experiment: Induction of cardiac tissue expansion in Zebrafish embryos exposed to compound at larval stage followed by compound washout in next day and further incubation until embryos reached 56 hpf; format: functional, organism-based
[14] = molecular target: T1, Dual specificity protein phosphatase (Danio rerio); experiment: Inhibition of Dusp6 in (Tg(Dusp6:d2EGFP)pt6) transgenic Zebrafish assessed as activation of FGF signaling by measuring increase in dusp6 expression at 10 to 20 uM dosed 1 to 10-somite stage by whole mount in situ hybridization assay; format: organism-based
[15] = species on record: Danio rerio; experiment: Induction of cardiac tissue expansion in ventricular tissue of Zebrafish embryos exposed to compound at larval stage followed by compound washout in next day and further incubation until embryos reached 56 hpf; format: functional, organism-based
[16] = molecular target: T1, Dual specificity protein phosphatase (Danio rerio); experiment: Inhibition of Dusp6 in Zebrafish 1-cell stage embryos assessed as rescue of Zebrafish dusp6-mediated suppression of sef expression at 5 uM
[17] = molecular target: T1, Dual specificity protein phosphatase (Danio rerio); experiment: Inhibition of Dusp6 in (Tg(Dusp6:d2EGFP)pt6) transgenic Zebrafish assessed as activation of FGF signaling by measuring increase in krox20 expression at 10 to 20 uM dosed 1 to 10-somite stage by whole mount in situ hybridization assay; format: organism-based
[18] = molecular target: T1, Dual specificity protein phosphatase (Danio rerio); experiment: Inhibition of Dusp6 in (Tg(Dusp6:d2EGFP)pt6) transgenic Zebrafish assessed as activation of FGF signaling after 2 hrs by d2EGFP fluorescence based assay
[19] = species on record: Danio rerio; experiment: Induction of cardiac tissue expansion in Zebrafish embryos exposed to compound at post 1 and 8-somite stages followed by compound washout in next day and further incubation until embryos reached 56 hpf; format: functional, organism-based
[20] = molecular target: T1, Dual specificity protein phosphatase (Danio rerio); experiment: Inhibition of Dusp6 in (Tg(Dusp6:d2EGFP)pt6) transgenic Zebrafish assessed as activation of FGF signaling by measuring expansion of rhombomere-4 and tail bud at 10 to 20 uM dosed 1 to 10-somite stage by whole mount in situ hybridization assay; format: organism-based
[21] = species on record: Danio rerio; experiment: as §1, with “cmlc2” for “VHMC”; format: functional, organism-based
[22] = species on record: Danio rerio; experiment: Inhibition of exogenous Zebrafish XFD-mediated suppression of sef expression in Zebrafish 1-cell stage embryos at 5 uM; format: functional, organism-based
[23] = species on record: Danio rerio; experiment: Inhibition of exogenous Zebrafish spry4-mediated suppression of sef expression in Zebrafish 1-cell stage embryos at 5 uM; format: functional, organism-based
[24] = molecular target: T1, Dual specificity protein phosphatase (Danio rerio); experiment: Inhibition of Dusp6 in (Tg(Dusp6:d2EGFP);ace mutant) transgenic Zebrafish assessed as activation of FGF signaling in mid-hindbrain boundary by d2EGFP fluorescence based assay
[25] = molecular target: T1, Dual specificity protein phosphatase (Danio rerio); experiment: Inhibition of Dusp6 in (Tg(Dusp6:d2EGFP)pt6) transgenic Zebrafish assessed as activation of FGF signaling by measuring expansion of prospective mid-hindbrain boundary at 10 to 20 uM dosed 1 to 10-somite stage by whole mount in situ hybridization assay; format: organism-based
[26] = molecular target: T1, Dual specificity protein phosphatase (Danio rerio); experiment: Inhibition of Dusp6 in (Tg(Dusp6:d2EGFP)pt6) transgenic Zebrafish assessed as activation of FGF signaling by measuring increase in spry4 expression at 10 to 20 uM by semi-quantitative RT-PCR analysis
[27] = species on record: Danio rerio; experiment: Induction of cardiac tissue expansion in Zebrafish embryos exposed to compound at 1 and 8-somite stages followed by compound washout in next day and further incubation until embryos reached 56 hpf; format: functional, organism-based
[28] = molecular target: T2, Dual specificity protein phosphatase 6 (Homo sapiens); experiment: Inhibition of Myc-tagged human Dusp6 expressed in TPA-stimulated human HeLa cells assessed as suppression of Dusp6-induced reduction in ERK phosphorylation by immunostaining based assay; format: cell-based
[29] = molecular target: T1, Dual specificity protein phosphatase (Danio rerio); experiment: Inhibition of Dusp6 in (Tg(Dusp6:d2EGFP)pt6) transgenic Zebrafish assessed as activation of FGF signaling at 5 uM by d2EGFP fluorescence based assay
[30] = molecular target: T2, Dual specificity protein phosphatase 6 (Homo sapiens); experiment: Inhibition of recombinant His-tagged Dusp6 (unknown origin) assessed as reduction in basal Dusp6 activity at 100 uM using OMFP substrate by fluorescence based assay
[31] = molecular target: T1, Dual specificity protein phosphatase (Danio rerio); experiment: Inhibition of Dusp6 in (Tg(Dusp6:d2EGFP)pt6) transgenic Zebrafish assessed as activation of FGF signaling by measuring increase in eng3 expression at 10 to 20 uM dosed 1 to 10-somite stage by whole mount in situ hybridization assay; format: organism-based
[32] = molecular target: T1, Dual specificity protein phosphatase (Danio rerio); experiment: Inhibition of Dusp6 in (Tg(Dusp6:d2EGFP)pt6) transgenic Zebrafish assessed as activation of FGF signaling by measuring increase in ntl expression within notochord and tail bud at 6-somite stage at 10 to 20 uM dosed prior to gastrulation by whole mount in situ hybridization assay; format: organism-based
[33] = molecular target: T4, Dual specificity protein phosphatase (Danio rerio) (UniProt Q6PBT4); experiment: Inhibition of Dusp5 in Zebrafish 1-cell stage embryos assessed as rescue of Zebrafish dusp5-mediated suppression of sef expression at 5 uM
T4 sequence (whole entry): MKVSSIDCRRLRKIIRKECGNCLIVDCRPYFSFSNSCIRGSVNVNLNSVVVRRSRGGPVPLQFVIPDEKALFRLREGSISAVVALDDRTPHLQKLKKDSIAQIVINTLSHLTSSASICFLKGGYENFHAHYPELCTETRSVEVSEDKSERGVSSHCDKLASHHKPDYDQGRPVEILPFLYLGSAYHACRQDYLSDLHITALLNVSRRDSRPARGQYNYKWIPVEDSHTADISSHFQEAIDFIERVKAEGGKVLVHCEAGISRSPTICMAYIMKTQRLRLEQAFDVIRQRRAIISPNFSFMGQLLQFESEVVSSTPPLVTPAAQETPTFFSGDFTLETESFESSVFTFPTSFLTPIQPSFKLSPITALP

[34] = molecular target: T1, Dual specificity protein phosphatase (Danio rerio); experiment: Inhibition of Dusp6 in Zebrafish assessed as assessed as activation of FGF signaling by measuring reduction in ETSRP expression relative to control
[35] = molecular target: Dual specificity protein phosphatase 6 (Homo sapiens) (UniProt Q16828); experiment: Inhibition of recombinant His-tagged Dusp6 (unknown origin) assessed as suppression of […] dephosphorylation at 1 mM incubated for 60 mins by immunoblotting

O=C1/C(=C/c2ccccc2)C(N2CCOCC2)c2ccccc21 (stereo not drawn)
100%: mortality at 24 h, 10 µM [1]

O=C1/C(=C/c2ccccc2)C(NC2CCCCC2)c2cc(Br)ccc21 (stereo not drawn)
Non-Toxic: Activity [2]

CC(C)(C)OC(=O)N[C@H]1CC[C@H](NC2/C(=C\c3ccccc3)C(=O)c3ccccc32)CC1 (stereo partly drawn)
inactive: Activity [3]

N#Cc1ccc2c(c1)C(NC1CCCCC1)/C(=C\c1ccccc1)C2=O (stereo not drawn)
inactive: Activity [3]

O=C1/C(=C/c2ccccc2)Cc2ccccc21
inactive: inhibition [4]

O=C1CC(NC2CCCCC2)c2ccccc21 (stereo not drawn)
inactive: inhibition [5] | inhibition [4] | inhibition [6] | inhibition [7]

O=C1N[C@H]2[C@H](CS[C@H]2CCCCC(=O)N[C@H]2CC[C@H](NC3/C(=C\c4ccccc4)C(=O)c4ccccc43)CC2)N1 (stereo partly drawn)
inactive: Activity [3]

O=C1/C(=C/c2ccccc2)C(NC2CCCCC2)c2ccccc21 (stereo in doubt; form 1) [listing 1 of 2 here]
Toxic: Activity [9] | Activity [10]
100%: mortality at 24 h, 20 µM [8]

O=C1/C(=C/c2ccccc2)C(NC2CCCCC2)c2ccccc21 (stereo in doubt; form 1) [listing 2 of 2 here]
100%: Activity [3]
inactive: Activity [19] | inhibition [22] | inhibition [23] | inhibition [24] | inhibition [30] | inhibition [33]
active: Activity [11] | inhibition [12] | Activity [13] Dose-dependent effect | inhibition [14] | Activity [15] | inhibition [16] | inhibition [5] | inhibition [17] | inhibition [18] Dose-dependent effect | inhibition [20] | Activity [21] | inhibition [25] | inhibition [26] | Activity [27] | inhibition [28] | inhibition [29] | inhibition [6] | inhibition [7] | inhibition [31] | inhibition [32] | inhibition [34]

O=C1/C(=C/c2ccccc2)C(NC2CCCCC2)c2ccccc21 (stereo in doubt; form 2)
82%: Activity [3]

SODIUM ORTHOVANAD
active: inhibition [35]

— ChEMBL document CHEMBL4420074, “Small molecule inhibitors of Dusp6 and uses therefor” (2015)
